Measured values as given in patent publication US5942501A, “Cyclodextrin derivative complex” (priority 1996, dated 1999).

Experiments:
[1] = cited from earlier work
[2] = Solubility in water of salicylic acid, cyclodextrins and cyclodextrin inclusion complexes; format: physicochemical; details: complexed with cyclodextrin

SMILES | solubility of salicylic acid in water ([1]; ambient temperatures, uncomplexed) | solubility of S.A. in water or mixed aqueous solvent (uncomplexed) ([1]; water or mixed aqueous solvent, starting value before complexation) | solubility in complexed form (in words) [2]
O=C(O)c1ccccc1O [salicylic acid] | about 0.3% | about 0.3% | –
OCCOc1ccccc1 [phenoxyethanol] | – | – | more soluble in complexed form
